≈ marks a conversion by molar mass, not a printed value. Where “and” joins values, the source holds several entries; their conditions need not be identical. Identical values can stand only once. Like-named read-outs stand apart in the source and are kept apart here.
Columns and labels:
MRSA USA300 [1] = assay: MIC by broth microdilution (CLSI); assay type: cell-based; settings: Staphylococcus aureus
Procedure: (§1) The antibacterial spectrum and susceptibility of WYBQ-4 against MRSA USA300, MSSA 29213, and clinically isolated S. aureus were determined using a broth microdilution method following the guidelines outlined by the Clinical and Laboratory Standards Institute (CLSI) ([37], [38]). […] The absorbance was measured at 600 nm, and experiments were repeated in three biological replicates.

[2] = test system: methicillin-susceptible Staphylococcus aureus (MSSA) 29213; assay: MIC by broth microdilution (CLSI); assay type: cell-based
Procedure: as §1

Streptococcus pyogenes = assay: MIC by broth microdilution (CLSI); assay type: cell-based
Enterococcus faecium = assay: MIC by broth microdilution (CLSI); assay type: cell-based; settings: compared to that against Staphylococcus
A549 cells = assay: Cytotoxicity assay (cell viability); assay type: cell-based
Procedure: (§2) Cytotoxicity assay. The cytotoxicity of WYBQ-4 against A549, HEK-293T, or HepG2 cells was evaluated with a cell counting kit-8 kit (CCK8; US Everbright, Suzhou, China) according to the manufacturer’s instructions ([41]). In brief, 5 × 10^4 cells were seeded in 96-well plates containing prewarmed medium (100 μL) and incubated for 24 h at 37°C in 5% CO2. Then, various concentrations of WYBQ-4 (0 to 512 μg/mL) were added and further incubated for 24 h. Afterward, the cells were incubated with 100 μL of medium with 10 μL of CCK8 solution (Sigma-Aldrich) for 4 h. Finally, a solution of the purple precipitate dissolved in dimethyl sulfoxide (DMSO) was added to a 96-well plate, and the absorbance was measured at 450 nm.

HEK-293T cells = assay: Cytotoxicity assay (cell viability); assay type: cell-based
Procedure: as §2

HepG2 cells = assay: Cytotoxicity assay (cell viability); assay type: cell-based
Procedure: as §2

MRSA USA300 [3] = assay: TEM analysis of cell morphology / division defects; assay type: cell-based, Staphylococcus aureus; settings: 4 μg/mL (1/2× MIC), 3 h
Procedure: MRSA USA300 was cultured overnight, diluted (1:100) into 20 mL of Trypticase soy broth (TSB) medium, and incubated at 30°C with shaking until the optical density at 600 nm (OD600) reached 0.3. […] Bacterial cells treated with 4 μg/mL ceftaroline fosamil (1/2 of their respective MIC) served as a control group. Untreated S. aureus served as a negative control. Bacteria were collected and washed in PBS and resuspended in 4% (vol/vol) glutaraldehyde fixation overnight. The fixed samples were further processed, and morphological changes in S. aureus were observed by TEM (JSM-7900F; JEOL, Japan).

PBP2a = PBP2a (Staphylococcus aureus, UniProt P07944); assay: PBP2a acylation kinetics, nitrocefin competition assay; assay type: biochemical, MRSA
Procedure: Please refer to the supplemental material for the kinetic parameters of the interaction between WYBQ-4 and PBP2a and the determination of the rate of diacylation.
Supplementary Method. 1 Determination of the Kinetic Parameters for Interactions of […]
Determination of the kinetic parameters for interactions of WYBQ-4 with PBP2a The kinetic parameters of the interaction of WYBQ-4 with PBP2a were determined as previously described (1). The kinetics of the reaction between PBP2a of MRSA with WYBQ-4 was studied in homogeneous aqueous solution at 37℃ in 25 mM Hepes buffer, pH 7.0, containing 1 M NaCl and the inhibition of PBPs by β-lactams follows this kinetic scheme. […]
In this minimal scheme, E represents PBP2a, EI is the noncovalent preacylation complex, E-I is the covalent acyl-enzyme species, and P denotes the product of E-I hydrolysis and restoration of […]
The typical reactions of β-lactam could be monitored through competition with a chromophoric β-lactam, nitrocefin, or directly in certain cases by fluorescence intensity of protein. In this study, it is proposed to determine the secondary rate constants (k2/Ks) of WYBQ-4 by nitrocefin competition assay. The reaction was conducted in the above buffer, and the reaction system contained PBP2a (2.5 μM) and different concentrations of nitrocefin (20-120 μM). The reaction was carried out in a UV spectrophotometer (PERSEE T600, China) and the change in absorbance at 500 nm was […]
Apparent first-order rate constants for acylation by nitrocefin were determined by fitting the change in absorbance with time to eqn. (1):
A = A0 + ∆εn E0[(1 − exp (−kn∗ t)] + k0N0∆εn Ε0t (1) where A0 is the initial absorbance at 500 nm, ∆εn the change in molar absorption coefficient on nitrocefin hydrolysis (15900 M-1cm-1), E0 the initial enzyme concentration, N0 the initial nitrocefin concentration, kn* the (burst) pseudo-first-order rate constant for acylation of PBP2a by nitrocefin, and k0 the (line) second-order rate constant of a non-specific hydrolysis of nitrocefin in the presence of PBP2a. The second-order rate constants (kn) for acylation were calculated by fitting a plot of the apparent first-order rate constants (kn*) against the concentration of nitrocefin using a linear least-squares method.
Subsequently, nitrocefin (100 μM) was used as a reporter molecule to determine the apparent first-order rate constants for acylation of WYBQ-4 at different concentrations (0-500 μM) in competition assays. In this case, the change in absorbance at 500 nm with time was fitted to eqn.
Α = A + ∆ε E (k∗ ∕ (k∗ + k∗)(1 − exp (−(k∗ + k∗)t)) + k N ∆ε Ε t (2) […]

Chain of PBP2a (P07944 whole entry): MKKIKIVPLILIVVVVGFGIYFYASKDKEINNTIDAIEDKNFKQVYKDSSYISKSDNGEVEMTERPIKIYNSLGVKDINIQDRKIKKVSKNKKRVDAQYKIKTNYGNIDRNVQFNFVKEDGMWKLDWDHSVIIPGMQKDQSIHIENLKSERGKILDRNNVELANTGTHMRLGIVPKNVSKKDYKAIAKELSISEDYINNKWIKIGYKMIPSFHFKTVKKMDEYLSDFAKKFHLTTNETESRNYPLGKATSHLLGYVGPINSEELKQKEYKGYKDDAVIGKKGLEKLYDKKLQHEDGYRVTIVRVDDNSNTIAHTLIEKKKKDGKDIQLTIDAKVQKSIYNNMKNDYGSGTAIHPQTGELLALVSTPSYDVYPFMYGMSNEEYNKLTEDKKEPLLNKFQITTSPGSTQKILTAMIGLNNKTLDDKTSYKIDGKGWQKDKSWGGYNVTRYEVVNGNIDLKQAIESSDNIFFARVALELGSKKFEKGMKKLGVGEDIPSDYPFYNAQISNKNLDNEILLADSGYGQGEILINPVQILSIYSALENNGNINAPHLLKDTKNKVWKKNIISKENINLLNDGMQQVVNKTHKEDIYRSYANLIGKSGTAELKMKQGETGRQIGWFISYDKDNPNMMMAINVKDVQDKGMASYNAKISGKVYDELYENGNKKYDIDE

Question: `C#CCO[C@@]1(NC(=O)CSc2cccc(C)c2)C(=O)N2C(C(=O)O)=C(CSc3nnnn3C)CSC21` (stereo partly drawn) [WYBQ-4] was tested. Which MIC (MRSA USA300 [1]) did it give?
Answer: 8 µg/mL (≈ 14.6 µM)

Question: And the MIC [2]?
Answer: 0.5 µg/mL (≈ 0.915 µM)

Question: What about the MIC (Streptococcus pyogenes) of the same compound?
Answer: 1 µg/mL (≈ 1.83 µM)

Question: And the antibacterial activity (Enterococcus faecium)?
Answer: weak

Question: What about the cell viability (A549 cells) of the same compound?
Answer: still viable

Question: What about the cell viability (A549 cells; A549, 0-128 μg/mL) of the same compound?
Answer: did not affect the viability

Question: And the cell viability (HEK-293T cells)?
Answer: still viable

Question: And the cell viability (HEK-293T cells; HEK-293T, 0-128 μg/mL)?
Answer: did not affect the viability

Question: What about the cell viability (HepG2 cells) of the same compound?
Answer: still viable

Question: What about the cell viability (HepG2 cells; HepG2, 0-128 μg/mL) of the same compound?
Answer: did not affect the viability

Question: And the “Asymmetry of bacterial division (number of cells)” value (MRSA USA300 [3])?
Answer: 38

Question: What about the “Distortion of septa (number of cells)” value (MRSA USA300 [3]) of the same compound?
Answer: 27

Question: And the “Percentage of defective cells (asymmetry of bacterial division)” value (MRSA USA300 [3])?
Answer: 40.9 b %

Question: What about the “Percentage of defective cells (distortion of septa)” value (MRSA USA300 [3]) of the same compound?
Answer: 29.0 a %

Question: What about the “Percentage of defective cells (thin cell walls)” value (MRSA USA300 [3]) of the same compound?
Answer: 63.4% and 63.4 c %

Question: What about the “Thin cell walls (number of cells)” value (MRSA USA300 [3]) of the same compound?
Answer: 59

Question: What about the k2 (PBP2a; PBP2a acylation) of the same compound?
Answer: 4.872 ± 0.14 s^–1 × 10^3

Question: What about the kinact/KI (PBP2a; pH 7, read-out: k2/ks) of the same compound?
Answer: 174 ± 8.45 M⁻¹ s⁻¹

— paper PMC9603521, “WYBQ-4: a New Bactericidal Agent against Methicillin-Resistant Staphylococcus aureus” (Microbiology Spectrum, 2022)
